PubChem BioAssay (NCI)
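Method: 48-hour compound exposure of cells in 96-well plates, five concentrations, linear interpolation of endpoints. TGI denotes the concentration required for complete inhibition of growth.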

Assays:
Test in all cases: DTP human tumour cell line panel, 48 h
[1] = tested on: COLO 205 colon
[2] = tested on: SN12C renal
[3] = tested on: ACHN renal
[4] = tested on: OVCAR-8 ovarian
[5] = tested on: EKVX NSCLC
[6] = tested on: 786-0 renal
[7] = tested on: NCI-H460 lung
[8] = tested on: PC-3 prostate
[9] = tested on: SK-OV-3 ovarian
[10] = tested on: MDA-N
[11] = tested on: T-47D breast
[12] = tested on: UACC-62 melanoma
[13] = tested on: M14 melanoma
[14] = tested on: UO-31 renal
[15] = tested on: BT-549 breast
[16] = tested on: NCI-H522 lung

Row | Compound | TGI [1] [µM] | TGI [2] [µM] | TGI [3] [µM] | TGI [4] [µM] | TGI [5] [µM] | TGI [6] [µM] | TGI [7] [µM] | TGI [8] [µM] | TGI [9] [µM] | TGI [10] [µM] | TGI [11] [µM] | TGI [12] [µM] | TGI [13] [µM] | TGI [14] [µM] | TGI [15] [µM] | TGI [16] [µM]
1 | O=C1C=CC=C/C1=C1\N=C(c2ccccc2OCC(=O)c2ccc(Br)cc2)SS1 | > 100 | > 100 | > 100 | > 100 | > 100 | > 100 | > 100 | > 100 | > 100 | > 100 | > 100 | > 100 | > 100 | > 100 | 62.9 | 
2 | c1ccc(CSP234N5CCN2CCN3CCN4CC5)c(CSP234N5CCN2CCN3CCN4CC5)c1 | 47.3 | > 100 | > 100 | > 100 | > 100 | > 100 | > 100 | > 100 |  | 82.8 | > 100 | > 100 | > 100 | > 100 | > 100 | > 100
3 | COc1cc2c(cc1OC)CCc1cc(OC)c(OC)cc1CC2 | > 100 | > 100 | > 100 | > 100 | > 100 | > 100 | > 100 | > 100 | > 100 | > 100 | > 100 | > 100 | > 100 | > 100 | > 100 | 
4 | COC(=O)C1=C(C(=O)OC)c2cc(OC)ccc2C(C(=S)N(C)C)S1 (stereo unspecified) | > 100 | > 100 | > 100 | > 100 | > 100 | > 100 | > 100 | > 100 | > 100 | > 100 | > 100 | > 100 | > 100 | > 100 | > 100 | 
5 | COc1ccc(C2C3=C(Nc4ncnn42)c2ccccc2OC3c2ccccc2)cc1 (stereo unspecified) | > 100 | > 100 | > 100 | > 100 |  | > 100 | > 100 | > 100 | > 100 | 44.1 | 59.4 | > 100 | > 100 | > 100 | 41.5 | 
6 | Cc1ccccc1N=Nc1ccc(N/N=C2/CCCNC2=O)c(C)c1 | > 100 | > 100 | > 100 |  | > 100 | > 100 | > 100 | > 100 | > 100 | > 100 | > 100 | > 100 | > 100 | > 100 | > 100 | > 100
7 | Cc1ccc(N=Nc2c(C)c(C#N)c(=S)n(C3OC(CO)C(O)C(O)C3O)c2C)cc1 (stereo unspecified) | > 100 | 94.2 | > 100 |  |  | 83.8 | 91.3 | > 100 | > 100 | > 100 | 46 | 29 | 41.7 | 98.8 | 54.4 | 
8 | NC(=S)Nc1ccc(S(=O)(=O)Nc2ccc(S(N)(=O)=O)cc2)cc1 | > 100 | > 100 | > 100 | > 100 | > 100 | > 100 | > 100 | > 100 |  | > 100 | > 100 | > 100 | > 100 | > 100 | > 100 | > 100
9 | CC(C)Oc1ccc2c(c1)OCC1Cc3ccccc3OC21 (stereo unspecified) |  | > 100 |  | > 100 | > 100 | > 100 |  | > 100 | > 100 | > 100 | > 100 | > 100 | > 100 | > 100 | > 100 | > 100
10 | O=c1[nH]nc(Cc2ccccc2)[nH]1 | > 100 | > 100 | > 100 | > 100 | > 100 | > 100 | > 100 | > 100 |  | > 100 | > 100 | > 100 | > 100 | > 100 | > 100 | > 100
11 | O=C(O)[C@@H]1CSCN1C(=O)[C@@H]1CCC(=S)N1 |  | > 100 | > 100 | > 100 |  | > 100 | > 100 | > 100 | > 100 | > 100 | > 100 |  | > 100 | > 100 | > 100 | > 100
12 | O=C(O)Cc1cccc2c1OC(c1ccccc1)C(Cl)(C(=O)c1ccccc1)C2=O (stereo unspecified) |  | 26.2 | 26.9 | 65.2 | 50 | 25.9 | 55.8 | 24.3 | > 100 | 29 | 40.2 |  |  | 31.9 | > 100 | 29.6
13 | CC(=O)N[C@@H](Cc1ccc(O)cn1)C(=O)NCc1cccc(Cl)c1 | > 100 | > 100 | > 100 |  | > 100 | > 100 | > 100 | > 100 | > 100 | > 100 | > 100 | > 100 | > 100 | > 100 | > 100 | > 100
